Experimental data from ChEMBL document CHEMBL5728485, “Biaryloxy derivatives as TTX-S blockers” (2021).

Target: Sodium channel protein type 9 subunit alpha (Homo sapiens, UniProt Q15858)
Experiment: EFS-FRET Assay: This screen is used to determine the effects of compounds on human Nav1.7 channels, utilizing electrical field stimulation (EFS) system in 96-well plate format on FDSS (Hamamatsu Photonics) platform. The changes of membrane potential are monitored with FRET dye pair, DiSBAC2(3) and PTS 18.

Sequence of Sodium channel protein type 9 subunit alpha (Q15858 whole entry): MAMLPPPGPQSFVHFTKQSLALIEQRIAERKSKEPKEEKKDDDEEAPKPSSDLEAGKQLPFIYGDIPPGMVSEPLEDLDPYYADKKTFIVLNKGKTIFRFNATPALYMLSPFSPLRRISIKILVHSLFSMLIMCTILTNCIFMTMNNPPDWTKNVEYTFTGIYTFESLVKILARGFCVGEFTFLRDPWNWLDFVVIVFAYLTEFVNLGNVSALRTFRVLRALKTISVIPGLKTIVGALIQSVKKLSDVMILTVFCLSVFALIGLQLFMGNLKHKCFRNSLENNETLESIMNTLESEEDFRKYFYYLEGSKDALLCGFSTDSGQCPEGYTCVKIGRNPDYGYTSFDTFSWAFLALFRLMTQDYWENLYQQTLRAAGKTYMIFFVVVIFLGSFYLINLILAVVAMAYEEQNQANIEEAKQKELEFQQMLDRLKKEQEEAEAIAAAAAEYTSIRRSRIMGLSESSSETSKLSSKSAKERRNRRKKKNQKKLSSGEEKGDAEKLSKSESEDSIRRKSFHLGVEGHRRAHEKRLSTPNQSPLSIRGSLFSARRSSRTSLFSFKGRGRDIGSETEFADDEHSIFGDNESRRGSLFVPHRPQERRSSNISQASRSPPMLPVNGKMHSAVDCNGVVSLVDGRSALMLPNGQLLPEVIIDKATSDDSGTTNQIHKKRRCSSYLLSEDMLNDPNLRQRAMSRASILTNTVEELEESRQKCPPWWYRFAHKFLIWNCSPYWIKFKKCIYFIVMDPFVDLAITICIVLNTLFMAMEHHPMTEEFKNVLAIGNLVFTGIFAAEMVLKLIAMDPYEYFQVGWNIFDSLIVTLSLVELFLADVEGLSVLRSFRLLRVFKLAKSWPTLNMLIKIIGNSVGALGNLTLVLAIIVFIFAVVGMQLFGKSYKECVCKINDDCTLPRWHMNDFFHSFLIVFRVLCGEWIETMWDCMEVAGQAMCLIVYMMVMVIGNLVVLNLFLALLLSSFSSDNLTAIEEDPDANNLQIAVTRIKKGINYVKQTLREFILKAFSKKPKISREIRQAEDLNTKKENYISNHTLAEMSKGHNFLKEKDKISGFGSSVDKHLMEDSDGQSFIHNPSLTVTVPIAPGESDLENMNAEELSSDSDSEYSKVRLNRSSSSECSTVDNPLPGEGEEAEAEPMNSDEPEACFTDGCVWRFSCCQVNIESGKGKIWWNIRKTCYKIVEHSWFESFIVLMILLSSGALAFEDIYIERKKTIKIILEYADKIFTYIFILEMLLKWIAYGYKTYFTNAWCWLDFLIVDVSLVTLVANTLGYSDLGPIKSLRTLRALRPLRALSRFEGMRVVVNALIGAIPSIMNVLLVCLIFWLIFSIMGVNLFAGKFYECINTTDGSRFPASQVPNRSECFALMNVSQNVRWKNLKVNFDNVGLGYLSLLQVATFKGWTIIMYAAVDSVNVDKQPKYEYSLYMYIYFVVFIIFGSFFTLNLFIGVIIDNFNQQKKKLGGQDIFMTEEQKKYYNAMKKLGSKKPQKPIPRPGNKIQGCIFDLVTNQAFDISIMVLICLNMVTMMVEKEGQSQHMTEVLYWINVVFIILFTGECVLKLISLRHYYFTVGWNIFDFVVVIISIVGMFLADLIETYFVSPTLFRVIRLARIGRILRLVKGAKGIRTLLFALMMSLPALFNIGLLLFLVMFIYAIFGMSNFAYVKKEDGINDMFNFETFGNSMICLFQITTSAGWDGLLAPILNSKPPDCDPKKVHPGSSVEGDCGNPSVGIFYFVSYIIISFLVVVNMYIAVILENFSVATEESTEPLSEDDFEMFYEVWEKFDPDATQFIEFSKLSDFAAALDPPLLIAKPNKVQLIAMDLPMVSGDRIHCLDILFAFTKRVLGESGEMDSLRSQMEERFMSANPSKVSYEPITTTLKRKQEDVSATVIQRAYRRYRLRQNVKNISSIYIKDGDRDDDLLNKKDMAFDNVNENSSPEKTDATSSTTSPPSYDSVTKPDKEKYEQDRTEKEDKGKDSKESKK

SMILES	IC50 [nM]
CCOC(=O)N1CCC(COc2ccc(-c3cccc(OCc4ccc(C(=O)NS(C)(=O)=O)cc4)c3)cn2)CC1	< 500
CS(=O)(=O)NC(=O)c1ccc(COc2cccc(-c3cnc(OCC4CC4)cn3)c2)c(F)c1	< 500
Cc1cc(OCC2CC2)cnc1-c1cc(F)cc(OCc2ccc(C(=O)NS(C)(=O)=O)cc2)c1	< 500
CS(=O)(=O)NC(=O)c1ccc(COc2cccc(-c3cc(OCC4CC4)ncn3)c2)cc1	< 500
CS(=O)(=O)NC(=O)c1ccc(COc2cccc(-c3ncc(OCC4CC4)cc3Cl)c2)cc1	< 500
CS(=O)(=O)NC(=O)c1ccc(COc2cccc(-c3ccc(OCC4CCC4)nc3)c2)nc1	< 500
CS(=O)(=O)NC(=O)c1ccc(COc2cccc(-c3cccnc3OCC3CC3)c2)cc1	< 500
Cc1cc(OCC2CC2)ncc1-c1cccc(OCc2ccc(C(=O)NS(C)(=O)=O)cc2F)c1	< 500
CS(=O)(=O)NC(=O)c1ccc(COc2ccc(Cl)c(-c3ccc(OCC4CC4)nc3)c2)cc1	< 500
CS(=O)(=O)NC(=O)c1ccc(COc2cc(Br)cc(-c3ccc(OCC4CC4)nc3)c2)cc1	< 500
CN(C)C(=O)COc1cc(OCC2CC2)cc(-c2cc(F)cc(OCc3ccc(C(=O)NS(C)(=O)=O)cc3F)c2)c1	< 500
CS(=O)(=O)NC(=O)c1ccc(COc2cccc(-c3ccc(OCC4CC4)nc3)c2)c(C#N)c1	< 500
CS(=O)(=O)NC(=O)c1ccc(COc2cc(C#N)cc(-c3ccc(OCC4CC4)nc3)c2)cc1	< 500
CS(=O)(=O)NC(=O)c1ccc(COc2cccc(-c3cnc(OCC4CCC4)c(CO)c3)c2)c(F)c1	< 500
Cc1nc(OCC2CC2)ccc1-c1cc(F)cc(OCc2ccc(C(=O)NS(C)(=O)=O)cc2)c1	< 500
CS(=O)(=O)NC(=O)c1ccc(COc2cccc(-c3ccnc(OCC4CC4)c3)c2)c(F)c1	< 500
CS(=O)(=O)NC(=O)c1cc(OC(F)F)c(COc2cccc(-c3ccc(OCC4CC4)nc3)c2)cc1F	< 500
O=C(NS(=O)(=O)C1CC1)c1ccc(COc2cccc(-c3cnc(OCC4CC4)cn3)c2)cc1	< 500
CS(=O)(=O)NC(=O)c1ccc(COc2cc(F)cc(-c3cnc(OCC4CC4)cn3)c2)cc1	< 500
CS(=O)(=O)NC(=O)c1ccc(COc2cccc(-c3cc(OCC4CC4)ncn3)c2)c(F)c1	< 500
COC1CN(C(=O)c2cc(OCC3CC3)cc(-c3cc(F)cc(OCc4ccc(C(=O)NS(C)(=O)=O)cc4F)c3)c2)C1	< 500
CS(=O)(=O)NC(=O)c1ccc(COc2cc(-c3cncnc3)cc(-c3ccc(OCC4CC4)nc3)c2)cc1	< 500

SMILES	IC50 [nM]
CN(CC1CC1)c1cc(-c2cccc(OCc3ccc(C(=O)NS(C)(=O)=O)cc3F)c2)ccn1	< 500
Cc1c(OCC2CC2)ncnc1-c1cccc(OCc2ccc(C(=O)NS(C)(=O)=O)cc2)c1	< 500
Cc1c(-c2cc(OCc3ccc(C(=O)NS(C)(=O)=O)cc3F)ccc2F)ccnc1OCC1CC1	< 500
CS(=O)(=O)NC(=O)c1ccc(COc2cc(F)cc(-c3cncc(OCC4CC4)n3)c2)cc1	< 500
CS(=O)(=O)NC(=O)c1ccc(COc2cc(-c3ccccc3)cc(-c3ccc(OCC4CC4)nc3)c2)cc1	< 500
CS(=O)(=O)NC(=O)c1ccc(COc2cccc(-c3cncc(OCC4CC4)c3)c2)cc1	< 500
CN(CCO)Cc1cc(OCC2CC2)cc(-c2cc(F)cc(OCc3ccc(C(=O)NS(C)(=O)=O)cc3F)c2)c1	< 500
O=C(NS(=O)(=O)C1CC1)c1ccc(COc2cccc(-c3ccc(OCC4CCOCC4)nc3)c2)cc1	< 500
O=C(NS(=O)(=O)C1CC1)c1ccc(COc2cc(F)cc(-c3ccc(OCC4CC4)nc3)c2)cc1	< 500
Cc1ccc(OCc2ccc(C(=O)NS(=O)(=O)C3CC3)cc2F)cc1-c1ccc(OCC2CC2)nc1	< 500
Cc1c(-c2cccc(OCc3ccc(C(=O)NS(C)(=O)=O)cc3F)c2)ccnc1OCC1CC1	< 500
CS(=O)(=O)NC(=O)c1ccc(COc2cccc(-c3cnc(OCC4CC4)cn3)c2)cc1	< 500
Cc1cc(OCC2CC2)ncc1-c1cccc(OCc2ccc(C(=O)NS(C)(=O)=O)cc2)c1	< 500
O=C(NS(=O)(=O)c1nccs1)c1ccc(COc2cccc(-c3ccc(OCC4CC4)nc3)c2)cc1	< 500
Cc1cc(-c2cccc(OCc3ccc(C(=O)NS(C)(=O)=O)cc3)c2)cnc1OCC1CC1	< 500
CS(=O)(=O)NC(=O)c1ccc(COc2cccc(-c3ccc(OCC4CC4)nc3)c2)nc1	< 500
CS(=O)(=O)NC(=O)c1ccc(COc2cc(F)cc(-c3cnc(OCC4CCC4)c(CO)c3)c2)c(F)c1	< 500
CS(=O)(=O)NC(=O)c1ccc(COc2cccc(-c3cccc(OCC4CC4)n3)c2)cc1	< 500
Cc1nc(OCC2CC2)ccc1-c1cc(OCc2ccc(C(=O)NS(C)(=O)=O)cc2F)ccc1F	< 500
CS(=O)(=O)NC(=O)c1ccc(COc2cccc(-c3cc(OCC4CC4)ccn3)c2)cc1	< 500
CS(=O)(=O)NC(=O)c1ccc(COc2cc(F)cc(-c3cnc(OCC4CC4)nc3)c2)cc1	< 500
CS(=O)(=O)NC(=O)c1ccc(COc2cccc(-c3ccc(OCC4CC(F)(F)C4)nc3)c2)cc1	< 500

SMILES	IC50 [nM]
CS(=O)(=O)NC(=O)c1ccc(COc2cc(F)cc(-c3cc(OCC4CC4)ncn3)c2)cc1	< 500
Cc1cc(OCC2CCC2)cnc1-c1cccc(OCc2ccc(C(=O)NS(C)(=O)=O)cc2)c1	< 500
CN(CC1CC1)c1ncc(-c2cccc(OCc3ccc(C(=O)NS(C)(=O)=O)cc3F)c2)cn1	< 500
CN(C)C(=O)c1cc(OCC2CC2)cc(-c2cc(F)cc(OCc3ccc(C(=O)NS(C)(=O)=O)cc3F)c2)c1	< 500
Cc1c(OCC2CC2)ccnc1-c1cccc(OCc2ccc(C(=O)NS(C)(=O)=O)cc2F)c1	< 500
CS(=O)(=O)NC(=O)c1ccc(COc2cc(-c3ccc(OCC4CC4)nc3)ccc2Cl)cc1	< 500
CS(=O)(=O)NC(=O)c1ccc(COc2cc(F)cc(-c3cc(OCC(N)=O)cc(OCC4CC4)c3)c2)c(F)c1	< 500
CS(=O)(=O)NC(=O)c1ccc(COc2cccc(-c3cccc(OCC4CC4)n3)c2)c(F)c1	< 500
Cc1cc(-c2cccc(OCc3ccc(C(=O)NS(C)(=O)=O)cc3F)c2)cnc1OCC1CC1	< 500
CS(=O)(=O)NC(=O)c1ccc(COc2ccc(F)c(-c3ccc(OCC4CC4)nc3)c2)cc1	< 500
CS(=O)(=O)NC(=O)c1ccc(COc2cc(F)cc(-c3cncc(OCC4CC4)c3)c2)cc1	< 500
CS(=O)(=O)NC(=O)c1ccc(COc2cc(F)cc(-c3cc(OCC4CC4)cc(C(=O)N4CCOCC4)c3)c2)c(F)c1	< 500
CS(=O)(=O)NC(=O)c1ccc(COc2cc(F)cc(-c3ncc(OCC4CCC4)cn3)c2)cc1	< 500
CS(=O)(=O)NC(=O)c1ccc(COc2ccc(Cl)c(-c3ccc(OCC4CC4)nc3)c2)c(F)c1	< 500
O=C(NS(=O)(=O)C(F)(F)F)c1ccc(COc2cccc(-c3ccc(OCC4CC4)nc3)c2)cc1	< 500
Cc1c(-c2cc(F)cc(OCc3ccc(C(=O)NS(C)(=O)=O)cc3)c2)ccnc1OCC1CC1	< 500
CS(=O)(=O)NC(=O)c1ccc(COc2cc(F)cc(-c3ccc(OCC4CC4)nc3)c2)nc1	< 500
COc1cc(C(=O)NS(C)(=O)=O)ccc1COc1cccc(-c2ccc(OCC3CC3)nc2)c1	< 500
CC(C)(C)OC(=O)N1CC(COc2ccc(-c3cccc(OCc4ccc(C(=O)NS(C)(=O)=O)cc4F)c3)cn2)C1	< 500
O=C(NS(=O)(=O)C1CC1)c1ccc(COc2cc(-c3ccc(OCC4CC4)nc3)ccn2)cc1	< 500
CS(=O)(=O)NC(=O)c1ccc(COc2cc(F)cc(-c3ncc(OCC4CC4)cn3)c2)cc1	< 500
O=C(NS(=O)(=O)c1cccs1)c1ccc(COc2cccc(-c3ccc(OCC4CC4)nc3)c2)c(F)c1	< 500

SMILES	IC50 [nM]
O=C(NS(=O)(=O)CC1CC1)c1ccc(COc2cccc(-c3ccc(OCC4CC4)nc3)c2)c(F)c1	< 500
CS(=O)(=O)NC(=O)c1ccc(COc2cccc(-c3ccc(OCC4CC4)cn3)c2)c(F)c1	< 500
CC(C)S(=O)(=O)NC(=O)c1ccc(COc2cc(F)cc(-c3ccc(OCC4CC4)nc3)c2)cc1	< 500
CS(=O)(=O)NC(=O)c1ccc(COc2cc(Cl)cc(-c3ccc(OCC4CC4)nc3)c2)cc1	< 500
CS(=O)(=O)NC(=O)c1ccc(COc2cc(F)cc(-c3cc(OCC4CC4)ccn3)c2)cc1	< 500
CS(=O)(=O)NC(=O)c1ccc(COc2cccc(-c3cnc(OCC4CCC4)cn3)c2)cc1	< 500
O=C(NS(=O)(=O)c1cccs1)c1ccc(COc2cccc(-c3ccc(OCC4CC4)nc3)c2)cc1	< 500
Cc1nc(OCC2CC2)ncc1-c1cccc(OCc2ccc(C(=O)NS(C)(=O)=O)cc2F)c1	< 500
CS(=O)(=O)NC(=O)c1ccc(COc2cccc(-c3ccnc(OCC4CC4)c3)c2)cc1	< 500
CS(=O)(=O)NC(=O)c1ccc(COc2cccc(-c3ncc(OCC4CC4)cn3)c2)c(F)c1	< 500
CS(=O)(=O)NC(=O)c1ccc(COc2cccc(-c3ccc(OCC4CCOCC4)nc3)c2)c(F)c1	< 500
CS(=O)(=O)NC(=O)c1ccc(COc2cccc(-c3ccc(OCC4CCCC4)nc3)c2)cc1	< 500
CS(=O)(=O)NC(=O)c1cc(C2CC2)c(COc2cccc(-c3ccc(OCC4CC4)nc3)c2)cc1F	< 500
O=C(NS(=O)(=O)c1cccs1)c1ccc(COc2cc(F)cc(-c3ccc(OCC4CC4)nc3)c2)cc1	< 500
CS(=O)(=O)NC(=O)c1ccc(COc2cccc(-c3ccc(OCC4CCC4)nc3CO)c2)c(F)c1	< 500
CS(=O)(=O)NC(=O)c1ccc(COc2cccc(-c3ccc(OCC4CC4)nc3)n2)cc1	< 500
CS(=O)(=O)NC(=O)c1ccc(COc2cccc(-c3ccn(CC4CC4)n3)c2)c(F)c1	< 500
CS(=O)(=O)NC(=O)c1ccc(COc2cc(F)cc(-c3cc(OCCO)cc(OCC4CC4)c3)c2)c(F)c1	< 500
CS(=O)(=O)NC(=O)c1ccc(COc2cccc(-c3cnc(OCC4CC4)nc3)c2)c(F)c1	< 500
CS(=O)(=O)NC(=O)c1ccc(COc2cc(-c3cccnc3)cc(-c3ccc(OCC4CC4)nc3)c2)cc1	< 500
CS(=O)(=O)NC(=O)c1ccc(COc2cc(-c3ccc(OCC4CC4)nc3)cc(C(F)(F)F)c2)cc1	< 500
